The target of assay [1] is 5-hydroxytryptamine receptor 2C (Homo sapiens) (UniProt P28335). The settings on record: Compound concentration 10.0 uM.
The target of assay [2] is Alpha-2B adrenergic receptor (Homo sapiens) (UniProt P18089). The settings on record: Compound concentration 10.0 uM.
Assay [3] concerns the target T1, Sodium-dependent dopamine transporter (Homo sapiens, UniProt Q01959). The assay is described as follows: GPCRScan assay: inhibition of DAT. Also on record: radioligand conc. used [nm] 3.6 – 16.0, parental cells stable HEK.
Assay [4] addresses Kappa-type opioid receptor (Homo sapiens, UniProt P41145). The settings on record: Compound concentration 10.0 uM.
Assay [5] addresses 5-hydroxytryptamine receptor 2A (Homo sapiens) (UniProt P28223). The settings on record: Compound concentration 10.0 uM.
The target in assay [6] is Sodium-dependent serotonin transporter (Homo sapiens, UniProt P31645). The settings on record: Compound concentration 10.0 uM.
Assay [7] deals with T2, Muscarinic acetylcholine receptor M1 (Homo sapiens) (UniProt P11229).
T2 sequence (whole entry): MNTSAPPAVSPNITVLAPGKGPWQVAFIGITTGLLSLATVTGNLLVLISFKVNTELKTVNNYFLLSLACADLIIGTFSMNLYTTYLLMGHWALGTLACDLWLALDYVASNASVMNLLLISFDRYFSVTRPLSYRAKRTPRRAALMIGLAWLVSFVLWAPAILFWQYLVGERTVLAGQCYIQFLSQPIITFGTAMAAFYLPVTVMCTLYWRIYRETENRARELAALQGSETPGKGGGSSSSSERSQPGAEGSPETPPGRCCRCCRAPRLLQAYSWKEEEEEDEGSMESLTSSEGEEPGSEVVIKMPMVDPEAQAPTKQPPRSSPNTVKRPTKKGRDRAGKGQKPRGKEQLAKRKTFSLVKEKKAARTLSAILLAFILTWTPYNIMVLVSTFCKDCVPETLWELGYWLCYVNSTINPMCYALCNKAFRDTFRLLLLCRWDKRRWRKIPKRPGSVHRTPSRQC
The settings on record: Compound concentration 10.0 uM.

Assay [8] concerns the target T3, Muscarinic acetylcholine receptor M2 (Homo sapiens) (UniProt P08172).
T3 sequence (whole entry): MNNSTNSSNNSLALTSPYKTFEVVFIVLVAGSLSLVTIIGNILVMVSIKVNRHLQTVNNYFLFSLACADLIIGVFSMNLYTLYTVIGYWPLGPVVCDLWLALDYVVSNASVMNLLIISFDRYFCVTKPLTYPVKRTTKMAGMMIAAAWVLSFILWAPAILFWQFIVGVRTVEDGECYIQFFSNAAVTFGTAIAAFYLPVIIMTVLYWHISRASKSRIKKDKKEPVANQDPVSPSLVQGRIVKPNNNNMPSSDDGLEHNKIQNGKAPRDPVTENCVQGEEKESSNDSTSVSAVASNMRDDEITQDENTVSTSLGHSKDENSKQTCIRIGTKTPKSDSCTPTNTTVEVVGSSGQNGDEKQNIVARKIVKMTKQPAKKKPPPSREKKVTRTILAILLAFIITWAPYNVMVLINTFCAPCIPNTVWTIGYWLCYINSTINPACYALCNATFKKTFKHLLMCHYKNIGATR
The settings on record: Compound concentration 10.0 uM.

Assay [9] addresses D(1A) dopamine receptor (Homo sapiens) (UniProt P21728). The settings on record: Compound concentration 10.0 uM.
Assay [10] concerns the target 5-hydroxytryptamine receptor 1B (Homo sapiens) (UniProt P28222). The settings on record: Compound concentration 10.0 uM.
Assay [11] addresses 5-hydroxytryptamine receptor 1D (Homo sapiens) (UniProt P28221). The settings on record: Compound concentration 10.0 uM.
The target in assay [12] is T4, Protein O-GlcNAcase (Homo sapiens, UniProt O60502).
T4 sequence (O60502 whole entry): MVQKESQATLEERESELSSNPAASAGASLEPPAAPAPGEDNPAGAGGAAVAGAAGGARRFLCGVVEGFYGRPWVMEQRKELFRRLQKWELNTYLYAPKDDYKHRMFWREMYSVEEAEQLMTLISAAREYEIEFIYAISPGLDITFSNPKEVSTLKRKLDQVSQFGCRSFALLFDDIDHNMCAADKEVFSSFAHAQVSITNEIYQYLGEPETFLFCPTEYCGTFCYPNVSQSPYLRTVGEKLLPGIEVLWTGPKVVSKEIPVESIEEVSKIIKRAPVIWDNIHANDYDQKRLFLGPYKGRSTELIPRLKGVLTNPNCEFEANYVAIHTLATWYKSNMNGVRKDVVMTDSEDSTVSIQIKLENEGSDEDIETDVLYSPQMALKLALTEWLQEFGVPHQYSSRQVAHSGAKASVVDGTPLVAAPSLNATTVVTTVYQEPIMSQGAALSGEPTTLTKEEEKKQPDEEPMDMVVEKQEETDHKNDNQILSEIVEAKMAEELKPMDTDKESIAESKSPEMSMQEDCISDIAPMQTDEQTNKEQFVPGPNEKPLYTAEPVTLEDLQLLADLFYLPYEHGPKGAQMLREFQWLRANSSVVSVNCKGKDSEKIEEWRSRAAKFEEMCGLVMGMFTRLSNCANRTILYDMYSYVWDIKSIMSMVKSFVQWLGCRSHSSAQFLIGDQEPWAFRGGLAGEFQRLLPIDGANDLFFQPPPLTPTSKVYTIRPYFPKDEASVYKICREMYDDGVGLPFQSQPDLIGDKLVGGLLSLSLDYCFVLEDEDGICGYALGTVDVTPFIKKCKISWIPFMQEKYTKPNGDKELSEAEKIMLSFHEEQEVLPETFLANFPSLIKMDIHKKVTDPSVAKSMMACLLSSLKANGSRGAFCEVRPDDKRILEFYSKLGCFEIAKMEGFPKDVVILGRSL
The assay is described as follows: Fluorescence-based enzymatic assay.

In assay [13] the target is D(4) dopamine receptor (Homo sapiens) (UniProt P21917). The settings on record: Compound concentration 10.0 uM.
Assay [14] concerns the target Alpha-1D adrenergic receptor (Homo sapiens) (UniProt P25100). The settings on record: Compound concentration 10.0 uM.
Assay [15] concerns the target T1, Sodium-dependent dopamine transporter. The settings on record: Compound concentration 10.0 uM.
The species entered for assay [16] is Rattus norvegicus. The assay is described as follows: rGABA Cerep panel.
The species named for assay [17] is Rattus norvegicus. The assay is described as follows: rNaCH Cerep panel.
Assay [18] concerns the target Delta-type opioid receptor (Homo sapiens) (UniProt P41143). Put plainly: hOP1 Cerep panel.
The target in assay [19] is Melanocortin receptor 4 (Homo sapiens) (UniProt P32245). Put plainly: hMC4 Cerep panel.
Assay [20] deals with Histamine H1 receptor (Homo sapiens) (UniProt P35367). The assay is described as follows: hH1 Cerep panel.
The species named for assay [21] is Rattus norvegicus. The assay is described as follows: rCaCH (D888) Cerep panel.
Assay [22] has as its target Nociceptin receptor (Homo sapiens) (UniProt P41146). The assay is described as follows: hORL1 Cerep panel.
Assay [23] addresses D(1A) dopamine receptor (Homo sapiens) (UniProt P21728). Put plainly: hD1 Cerep panel.
Assay [24] deals with Histamine H2 receptor (Homo sapiens) (UniProt P25021). Put plainly: hH2 Cerep panel.
Assay [25] has as its target Mu-type opioid receptor (Homo sapiens) (UniProt P35372). Put plainly: hOP3 Cerep panel.

SMILES strings stand for the structures. Active and inactive are the calls of the source. The rule behind the calls is not given here.

T1 sequence (Q01959 whole entry): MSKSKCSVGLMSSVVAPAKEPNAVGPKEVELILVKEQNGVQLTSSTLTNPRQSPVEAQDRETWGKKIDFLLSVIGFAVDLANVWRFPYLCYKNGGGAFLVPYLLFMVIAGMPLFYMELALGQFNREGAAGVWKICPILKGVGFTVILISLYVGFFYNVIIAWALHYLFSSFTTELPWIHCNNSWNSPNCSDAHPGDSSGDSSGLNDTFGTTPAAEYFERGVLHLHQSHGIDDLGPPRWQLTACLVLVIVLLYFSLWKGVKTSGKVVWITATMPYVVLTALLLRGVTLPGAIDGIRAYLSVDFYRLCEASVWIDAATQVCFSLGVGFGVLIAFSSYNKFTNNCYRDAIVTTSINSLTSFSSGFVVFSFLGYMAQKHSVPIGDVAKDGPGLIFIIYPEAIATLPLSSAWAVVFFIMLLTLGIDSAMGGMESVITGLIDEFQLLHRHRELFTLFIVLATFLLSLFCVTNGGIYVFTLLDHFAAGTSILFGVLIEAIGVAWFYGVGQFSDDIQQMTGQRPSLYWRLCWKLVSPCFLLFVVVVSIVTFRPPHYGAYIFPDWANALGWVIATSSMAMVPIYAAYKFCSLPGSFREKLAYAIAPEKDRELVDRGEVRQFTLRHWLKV
Sequence of 5-hydroxytryptamine receptor 2A (Homo sapiens) (P28223 whole entry): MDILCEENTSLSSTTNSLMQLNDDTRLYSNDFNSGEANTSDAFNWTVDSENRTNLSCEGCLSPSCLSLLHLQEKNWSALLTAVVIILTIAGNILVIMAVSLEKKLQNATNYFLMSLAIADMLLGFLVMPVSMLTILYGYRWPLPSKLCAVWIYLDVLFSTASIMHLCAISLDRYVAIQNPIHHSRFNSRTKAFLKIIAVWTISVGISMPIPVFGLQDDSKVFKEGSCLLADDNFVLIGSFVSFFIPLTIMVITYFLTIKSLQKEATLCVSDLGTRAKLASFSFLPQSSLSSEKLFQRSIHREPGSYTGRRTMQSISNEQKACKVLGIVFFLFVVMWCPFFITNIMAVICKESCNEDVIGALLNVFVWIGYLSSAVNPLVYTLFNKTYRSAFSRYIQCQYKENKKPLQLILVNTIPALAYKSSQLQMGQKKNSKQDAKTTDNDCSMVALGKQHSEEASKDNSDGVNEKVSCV
Sequence of Kappa-type opioid receptor (P41145 whole entry): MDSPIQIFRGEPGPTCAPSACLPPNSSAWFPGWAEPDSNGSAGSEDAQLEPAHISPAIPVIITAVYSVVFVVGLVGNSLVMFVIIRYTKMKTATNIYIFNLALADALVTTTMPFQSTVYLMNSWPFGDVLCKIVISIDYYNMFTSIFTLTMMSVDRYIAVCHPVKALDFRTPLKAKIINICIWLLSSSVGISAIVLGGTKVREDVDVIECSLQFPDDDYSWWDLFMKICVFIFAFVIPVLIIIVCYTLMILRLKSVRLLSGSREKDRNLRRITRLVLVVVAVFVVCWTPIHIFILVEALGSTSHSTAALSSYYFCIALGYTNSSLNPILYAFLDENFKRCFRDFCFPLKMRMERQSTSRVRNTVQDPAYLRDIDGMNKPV
Sequence of D(1A) dopamine receptor (Homo sapiens) (P21728 whole entry): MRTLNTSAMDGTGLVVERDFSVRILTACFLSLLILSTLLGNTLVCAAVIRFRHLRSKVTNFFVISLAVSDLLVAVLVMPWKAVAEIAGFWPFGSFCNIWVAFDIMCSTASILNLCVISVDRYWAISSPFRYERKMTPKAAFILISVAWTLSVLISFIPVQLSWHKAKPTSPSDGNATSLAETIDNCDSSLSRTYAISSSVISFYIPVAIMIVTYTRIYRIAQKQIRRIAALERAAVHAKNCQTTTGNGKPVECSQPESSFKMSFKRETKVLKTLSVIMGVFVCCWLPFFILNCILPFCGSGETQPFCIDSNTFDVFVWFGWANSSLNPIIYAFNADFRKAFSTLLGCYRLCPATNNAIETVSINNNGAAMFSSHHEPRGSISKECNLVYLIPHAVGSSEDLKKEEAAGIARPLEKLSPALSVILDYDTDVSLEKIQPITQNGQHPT
Sequence of 5-hydroxytryptamine receptor 2C (Homo sapiens) (P28335 whole entry): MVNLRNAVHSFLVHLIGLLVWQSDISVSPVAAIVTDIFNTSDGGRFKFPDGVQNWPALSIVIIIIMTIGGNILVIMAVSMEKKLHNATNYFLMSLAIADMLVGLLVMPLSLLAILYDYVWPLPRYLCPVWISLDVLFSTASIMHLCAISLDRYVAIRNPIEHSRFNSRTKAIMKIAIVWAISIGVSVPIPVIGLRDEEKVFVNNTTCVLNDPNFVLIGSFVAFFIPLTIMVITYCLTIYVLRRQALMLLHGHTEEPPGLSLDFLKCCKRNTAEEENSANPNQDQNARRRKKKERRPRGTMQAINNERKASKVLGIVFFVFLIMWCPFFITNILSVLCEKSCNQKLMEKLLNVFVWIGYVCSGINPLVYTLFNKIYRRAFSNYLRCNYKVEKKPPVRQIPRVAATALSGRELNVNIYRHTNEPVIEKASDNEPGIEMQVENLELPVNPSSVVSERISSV
Sequence of Sodium-dependent serotonin transporter (P31645 whole entry, looked up): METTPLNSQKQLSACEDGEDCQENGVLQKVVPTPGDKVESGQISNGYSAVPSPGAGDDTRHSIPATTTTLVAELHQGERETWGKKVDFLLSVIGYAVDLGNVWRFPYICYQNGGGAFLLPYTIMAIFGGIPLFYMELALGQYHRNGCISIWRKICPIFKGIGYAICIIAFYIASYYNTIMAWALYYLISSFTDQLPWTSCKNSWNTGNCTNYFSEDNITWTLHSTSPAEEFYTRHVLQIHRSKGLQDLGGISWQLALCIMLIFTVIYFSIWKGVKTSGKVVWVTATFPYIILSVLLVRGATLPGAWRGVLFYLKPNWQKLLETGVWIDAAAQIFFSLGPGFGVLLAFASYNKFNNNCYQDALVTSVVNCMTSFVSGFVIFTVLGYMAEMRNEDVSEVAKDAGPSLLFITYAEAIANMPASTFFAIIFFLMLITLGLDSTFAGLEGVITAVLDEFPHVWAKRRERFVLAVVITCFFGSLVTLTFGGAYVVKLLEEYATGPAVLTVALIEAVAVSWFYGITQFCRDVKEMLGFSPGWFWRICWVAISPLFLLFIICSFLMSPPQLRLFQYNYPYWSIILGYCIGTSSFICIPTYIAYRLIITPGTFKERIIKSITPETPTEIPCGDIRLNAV
Sequence of 5-hydroxytryptamine receptor 1B (Homo sapiens) (P28222 whole entry): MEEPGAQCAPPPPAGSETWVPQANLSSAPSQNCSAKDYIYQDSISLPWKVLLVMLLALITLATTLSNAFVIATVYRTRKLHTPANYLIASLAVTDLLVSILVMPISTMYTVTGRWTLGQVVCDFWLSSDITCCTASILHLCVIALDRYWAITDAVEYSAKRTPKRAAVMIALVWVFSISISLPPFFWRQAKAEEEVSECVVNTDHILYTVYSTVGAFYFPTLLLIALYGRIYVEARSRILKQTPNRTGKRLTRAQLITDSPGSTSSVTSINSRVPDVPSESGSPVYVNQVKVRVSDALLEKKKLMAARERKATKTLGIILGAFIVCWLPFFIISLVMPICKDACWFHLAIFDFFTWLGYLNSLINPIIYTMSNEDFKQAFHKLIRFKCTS
Sequence of D(4) dopamine receptor (Homo sapiens) (P21917 whole entry): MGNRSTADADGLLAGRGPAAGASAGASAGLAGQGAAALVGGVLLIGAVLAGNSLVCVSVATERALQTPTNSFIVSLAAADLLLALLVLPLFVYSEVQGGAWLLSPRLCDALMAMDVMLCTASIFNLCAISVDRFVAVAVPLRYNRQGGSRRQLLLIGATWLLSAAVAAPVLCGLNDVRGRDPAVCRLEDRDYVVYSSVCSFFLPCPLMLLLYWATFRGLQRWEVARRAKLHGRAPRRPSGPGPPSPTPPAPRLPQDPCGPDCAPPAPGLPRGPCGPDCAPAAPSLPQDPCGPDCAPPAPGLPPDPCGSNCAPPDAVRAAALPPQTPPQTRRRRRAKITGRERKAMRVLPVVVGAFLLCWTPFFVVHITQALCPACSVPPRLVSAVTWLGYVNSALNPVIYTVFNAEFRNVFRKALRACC
Sequence of Alpha-1D adrenergic receptor (Homo sapiens) (P25100 whole entry): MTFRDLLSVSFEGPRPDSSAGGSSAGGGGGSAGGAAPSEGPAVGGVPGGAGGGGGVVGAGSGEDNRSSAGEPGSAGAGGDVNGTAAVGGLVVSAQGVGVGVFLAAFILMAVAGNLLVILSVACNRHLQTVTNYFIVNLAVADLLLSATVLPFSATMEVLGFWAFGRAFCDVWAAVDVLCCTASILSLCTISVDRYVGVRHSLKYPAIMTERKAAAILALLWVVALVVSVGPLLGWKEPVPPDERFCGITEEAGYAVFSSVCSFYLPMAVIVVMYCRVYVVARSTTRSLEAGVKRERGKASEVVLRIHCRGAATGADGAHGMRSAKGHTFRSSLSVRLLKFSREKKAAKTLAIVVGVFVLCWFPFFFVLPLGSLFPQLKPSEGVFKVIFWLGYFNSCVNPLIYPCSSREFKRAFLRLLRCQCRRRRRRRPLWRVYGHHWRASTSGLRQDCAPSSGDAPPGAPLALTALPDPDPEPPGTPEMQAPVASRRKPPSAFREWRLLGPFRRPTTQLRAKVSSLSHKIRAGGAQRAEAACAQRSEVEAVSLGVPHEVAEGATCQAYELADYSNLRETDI
Sequence of 5-hydroxytryptamine receptor 1D (Homo sapiens) (P28221 whole entry): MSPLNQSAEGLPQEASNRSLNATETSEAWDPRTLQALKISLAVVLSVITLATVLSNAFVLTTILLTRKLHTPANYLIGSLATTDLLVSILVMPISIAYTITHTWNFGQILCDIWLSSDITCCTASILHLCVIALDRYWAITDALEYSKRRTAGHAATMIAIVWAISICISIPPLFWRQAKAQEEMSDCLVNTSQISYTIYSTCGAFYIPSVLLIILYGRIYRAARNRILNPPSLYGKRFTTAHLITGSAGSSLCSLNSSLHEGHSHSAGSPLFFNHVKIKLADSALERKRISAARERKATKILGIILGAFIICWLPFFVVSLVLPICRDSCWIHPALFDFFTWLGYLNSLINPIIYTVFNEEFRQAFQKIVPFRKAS

Take `CC(=O)Nc1nc(CN2CCC[C@H](Cc3cc(C)nc(C)c3)C2)cs1` [JNJ-73924149]: the inhibition (commonly the relative decrease from the control value, in per cent) in [1] was 16.3%; in assay [2], 59.1%; in [4], 17.9%; in [5], 6.45%; in assay [6], 52.3%; in assay [7], 25.4%. Besides, the inhibition in [8] is 8.65%; in assay [9], 10.7%; in assay [10] it was 4.01%; in [11], 14.5%; in assay [13] it was 6.82%; in assay [14] it was 7.45%. The inhibition in assay [15] was 81.9%. The results for the Ki in [3] (read-out: Ki) and in assay [3] (read-out: pKi (converted)) were 5.28 µM and 5.25 µM, respectively. The IC50 (usually the midpoint of a concentration-inhibition curve) in assay [12] is reported as > 10 µM (not active).
Regarding `CC(=O)Nc1ncc(CN2CCC[C@H](Cc3cc(C)nc(C)c3)C2)s1` [JNJ-65355394], the inhibition was 15.2% in [1]; 44.8% in [2]; 75.1% in assay [4]; -2.94% in [5]; 7.21% in assay [6]; 6.18% in assay [7]. For the same molecule, the inhibition in [8] is 9.54%; in assay [10], -2.53%; in assay [11] it was 11.6%; in assay [13] it was 3.53%; in assay [14] it was 8.3%; in [15] it was 13.4%. The effect is -9.8% in assay [16]; 1.6% in assay [17]; 20.4% in [18]; 1.3% in assay [19]; 5.7% in assay [20]; 4.9% in [21]. The effect in assay [22] was -5.7%; in assay [23], 20.1%; in assay [24] it was 11.4%; in assay [25] it was 55.4%. The IC50 in assay [12] is 0.0013 µM (active).

The values above are taken from ChEMBL document CHEMBL4800731, “Data for DCP probe JNJ-65355394” (2021).
